Source: US8604059B2, “Thioxanthene derivatives for the treatment of infectious diseases” (BKG Pharma APS, priority 2009, dated 2013)
Values after ≈ are worked out from the molar mass of the structure shown. Read-outs that look alike come from different tables or passages of the source.

Assays:
[1] = Cytotoxic effect in uninfected MT4 cultures; assay type: cell-based; details: human, uninfected MT4 cells; single agent; uninfected MT4
Description: (§1) Compounds were examined for possible antiviral activity against strain IIIB of HIV-1 using MT4 cells as target cells. MT4 cells were incubated with virus (0.005 MOI) and growth medium containing the test dilutions of compound(s) for six days in parallel with virus-infected and uninfected control cultures without compound added. Expression of HIV in the cultures was indirectly quantified using the MTT assay as previously described. Compounds mediating less than 30% reduction of HIV expression were considered without biological activity. Compounds were tested in parallel for cytotoxic effect in uninfected MT4 cultures containing the test dilutions of compound as described above. Cultures for test of both antiviral activity and cytotoxic effect were set up in tripleduplicates, […] per culture in micro titre plates. A 30% inhibition of cell growth relative to control cultures was considered significant. The 50% inhibitory concentration was determined by interpolation from the plots of percent inhibition versus concentration of compound.
(§2) CC50 is defined as the inhibitory concentration that reduces cellular growth or viability of uninfected cells by 50%.

MT4 cells = assay: Cytotoxic effect in uninfected MT4 cultures; assay type: cell-based; details: read-out: CC50 A + C3 (1 μM); AZT in presence of compound 3 at 1 μM
Description: as §1, §2

strain IIIB of HIV-1 = assay: Inhibition of HIV-1 replication in MT4 cells, MTT assay; assay type: cell-based; details: Human immunodeficiency virus 1, IIIB
Description: The enhancing effect of compound 3 on anti-viral agents was studied by checkerboard combination studies exposing HIV infected cells to 0-3 μM anti-viral agent in the absence or presence of compound 3 in concentrations from 0 to 6 μM. Each experiment was repeated in tripleduplicate. MIC values represent the mean values of two separate experiments.
The HIV-1 strain HTLV-IIIB were propagated in H9 cells at 37° C., 5% CO2 using RPMI 1640 with 10% heat-inactivated foetal calf serum (FCS) and antibiotics (growth medium). Culture supernatant was filtered ([…]), aliquotted, and stored at −80° C. until use. The HIV-1 strain was obtained from NIH AIDS Research and Reference Program.
as §1
EC50 is defined as the effective concentration that inhibits 50% of viral production, 50% of viral infectivity, or 50% of the virus-induced cytopathic effect.

E. coli = assay: MIC, microdilution broth, multiresistant clinical isolates (Table 1A); assay type: cell-based; details: Escherichia coli; ten multiresistant clinical isolates; read-out: Median MIC E. coli
Description: (§3) Cell growth was tested using the Minimal Inhibitory Concentration (MIC) susceptibility tests by use of the microdilution broth method in accordance to the NCCLS Guidelines (NCCLS Guidelines, Methods for Dilution Antimicrobial Susceptibility Tests for Bacteria That Grow Aerobically; Approved Standard, Sixth Edition, Volume 23; Number 2). The minimum inhibitory concentration (MIC), is defined as the lowest concentration of drug which inhibits growth of the test organism, in the sense that no visible growth is detected (total inhibition of growth). In example 2, MIC of the compounds used on fungal microorgansims was determined from the IC90 measurements according to NCCLS Guidelines.
(§4) A log phase culture of bacteria was diluted with fresh pre-warmed Mueller-Hinton medium and adjusted to a defined OD at 600 nm in order to give a final concentration of 1×10^4-5 bacteria/ml medium. The bacterial culture was transferred to microtiter-plates and culture was added to each well. […] Trays were incubated at 37° C. by shaking in a robot analyzer, PowerWavex, software KC^4′ Kebo. Lab, Copenhagen, for 16 h and optical densities were measured at 600 nm during the incubation time in order to record growth curves. Wells containing bacterial culture without drug were used as controls to ensure correct inoculum size and bacterial growth during the incubation. Cultures were tested in order to detect contaminations. Each experiment was repeated in triplicate.
(§5) Ten strains in each test group.

S. epidermidis = assay: as above; assay type: cell-based; details: Staphylococcus epidermidis; ten multiresistant clinical isolates; read-out: Median MIC S. epidermidis
Description: as §3, §4, §5

E. faecalis = assay: as above; assay type: cell-based; details: Enterococcus faecalis; ten multiresistant clinical isolates; read-out: Median MIC E. faecalis
Description: as §3, §4, §5

S. aureus = assay: as above; assay type: cell-based; details: Staphylococcus aureus; ten multiresistant clinical isolates; read-out: Median MIC S. aureus
Description: as §3, §4, §5

E. faecium = assay: as above; assay type: cell-based; details: Enterococcus faecium; ten multiresistant clinical isolates; read-out: Median MIC E. faecium
Description: as §3, §4, §5

[2] = system: E. coli MDR clinical isolates; assay: FIC index, synergy with antibiotics (Table 4a); assay type: cell-based; details: 8 MDR E. coli, mean, compound at ¼ of MIC
Description: (§6) The effect of the compounds was tested according to the methods described in WO2005/105145. In brief, cell growth was tested using the MIC susceptibility tests by use of the microdilution broth method in accordance to the NCCLS Guidelines (NCCLS Guidelines, Methods for Dilution Antimicrobial Susceptibility Tests for Bacteria That Grow Aerobically; Approved Standard, Sixth Edition, Volume 23; Number 2).
(§7) The Fractional Inhibitory Concentration (FIC) index were calculated for each compound as described in WO2005/105145. Synergy was defined for Fractional Inhibitory Concentration (FIC) indices less than 0.5
E. coli: 8 in vivo-selected multidrug resistant clinical isolates of E. coli. Resistant to tetracycline, beta-lactams, fluoroquinolones, chloramphenicol and aminoglycoside

[3] = system: E. faecalis MDR/VRE clinical isolates; assay: FIC index, synergy with antibiotics (Table 4a); assay type: cell-based, Enterococcus faecalis; details: 8 MDR/VRE E. faecalis, mean, compound at ¼ of MIC
Description: as §6, §7
Enterococcus faecalis: 8 multidrug resistant in vivo-selected clinical isolates. […] Expressing change in the cell wall precursor target as a major resistance mechanism (VanA gene expression).

[4] = system: Multiresistant clinical isolates E. coli; assay: Maximal reversal of resistance and synergistic effect (Table 4c); assay type: cell-based; details: E. coli multiresistant isolates
Description: The maximal obtained reversal of resistance and synergistic effect was tested as previously described.
Strains: Multiresistant clinical isolates E. coli, Ten strains in each group.

[5] = system: S. aureus MRSA clinical isolates; assay: FIC index, synergy with antibiotics (Table 4a); assay type: cell-based, Staphylococcus aureus; details: with Dicloxacillin; 8 MRSA; mean; compound at ¼ of MIC
Description: as §6, §7
Staphylococcus aureus: 8 (MRSA) in vivo-selected clinical isolates. Resistant to methicillin and beta-lactam antibiotics. Susceptible to teicoplanin chloramphenicol, fosfomycin, netilmicin and vancomycin.

Streptococci = assay: MIC on multiresistant and susceptible clinical isolates (Table 1b); assay type: cell-based; details: 8 multiresistant and 8 susceptible isolates
Description: as §3
(§8) A log phase culture of bacteria was diluted with fresh pre-warmed Mueller-Hinton medium and adjusted to a defined OD at 600 nm in order to give a final concentration of 1×10^4-5 bacteria/ml medium. The bacterial culture was transferred to microtiter-plates and culture was added to each well. Drug was added to the bacterial culture in the wells as two-fold dilution series of drug in order to give final concentrations ranging from 0.03 to 128 μg/ml. Trays were incubated at 37° C. by shaking in a robot analyzer, PowerWavex, software KC^4′ Kebo. Lab, Copenhagen, for 16 h and optical densities were measured at 600 nm during the incubation time in order to record growth curves. Wells containing bacterial culture without drug were used as controls to ensure correct inoculum size and bacterial growth during the incubation. Cultures were tested in order to detect contaminations. Each experiment was repeated in triplicate. MIC values represent the mean values of two separate triplicate experiments. Intra- and interassay variation was <5%.
(§9) Clinically relevant human bacterial isolates of Staphylococci, Streptococci, Micrococci and Gram negative species was cultured and assayed as described above for susceptibility towards the compounds listed in table 1b.

Gram negative sp. = assay: as above; assay type: cell-based; details: 8 multiresistant and 8 susceptible isolates
Description: as §3, §8, §9

[6] = system: Staphylococci, Micrococci. Including MRSA; assay: as above; assay type: cell-based; details: Micrococci incl. MRSA, 8 multiresistant and 8 susceptible isolates
Description: as §3, §8, §9

Candida species = assay: MIC on clinical isolates of Candida species, broth microdilution NCCLS M27-A (Table 3); assay type: cell-based; details: Candida species incl. fluconazole resistant; MIC = 90% growth inhibition
Description: The antibacterial effect of demethylated/dealkylated phenothiazine or thioxanthene compounds were studied by growth inhibition studies exposing cells to 0-32 μg/ml of drug. Each experiment was repeated in triplicate. MIC values represent the mean values of two separate triplicate experiments.
4 clinical isolates of Candida species (including 3 fluconazole resistant isolates) were subcultured for 24 h on Sabouraud glucose agar before susceptibility testing. Broth microdilution tests were performed according to NCCLS document M27-A (Ref: National Commitee for Clinical Laboratory Standards. (1997). Reference Method for Broth Dilution Antifungal Susceptibility Testing of Yeasts: Approved Standard M27-A. NCCLS, Wayne, Pa.). Microtitre plates were read spectrophotometrically at 530 nm, after mixing the wells by pipetting to resuspend yeast sediments. In this experiment, the MIC was defined as the lowest drug dilution resulting in 90% growth inhibition.

Candida albicans = assay: Synergy with fluconazole, broth microdilution NCCLS M27-A (Table 10); assay type: cell-based
Description: The isolates were subcultured for 24 h on Sabouraud glucose agar before susceptibility testing. Broth microdilution tests were performed according to NCCLS document M27-A (Ref: National Commitee for Clinical Laboratory Standards. (1997). Reference Method for Broth Dilution Antifungal Susceptibility Testing of Yeasts: Approved Standard M27-A. NCCLS, Wayne, Pa.) Microtitre plates were read spectrophotometrically at 530 nm, after mixing the wells by pipetting to resuspend yeast sediments. […] The Fractional Inhibitory Concentration (FIC) was calculated for the anti-infective agent alone and in combination with compound 3 and 4 (see table 4) as described above. Synergy was defined as a FIC index of <0.5.

Enterococci sp. = assay: MIC on multiresistant and susceptible clinical isolates of Enterococci (Table 2); assay type: cell-based, Enterococcus faecalis and Enterococcus faecium; details: 8 multiresistant (VanA, VanB, HLAR, BLR,CR) and 8 susceptible isolates
Description: as §3
as §8, with “Wells containing bacterial culture without drug were used as controls to ensure correct inoculum size and bacterial growth during the incubation. Cultures were tested in order to detect contaminations. Each experiment was repeated in triplicate. MIC values represent the mean values of two separate triplicate experiments. Intra- and interassay variation was <5%.” left out

Cc1cn([C@H]2C[C@H](N=[N+]=[N-])[C@@H](CO)O2)c(=O)[nH]c1=O [AZT, 3′-Azido-3′-deoxythymidine]
CC50 at 6 days [1]: > 3000 nM | CC50 (MT4 cells): > 3000 nM | EC50 (strain IIIB of HIV-1; 144 h, single agent, MT4 cells, six days, read-out: EC50): 50 nM | EC50 (strain IIIB of HIV-1; MT4, read-out: EC50 A + C3 (1 μM), AZT in presence of compound 3 at 1 μM): 10 nM

OCCN1CCN(CC/C=C2\c3ccccc3Sc3ccc(Cl)cc32)CC1 [Compound 2, trans-clopentixol]
MIC (E. coli): 16 µg/mL (≈ 39.9 µM) | MIC (S. epidermidis): 8 µg/mL (≈ 20 µM) | MIC (E. faecalis): 1 µg/mL (≈ 2.49 µM) | MIC (S. aureus): 8 µg/mL (≈ 20 µM) | MIC (E. faecium): 1 µg/mL (≈ 2.49 µM) | FIC index ([2]; with Ampicillin): 0.47 | FIC index ([2]; with Ciprofloxacin): 0.44 | FIC index ([2]; with Gentamycin): 0.44 | FIC index ([2]; with Tetracycline): 0.47 | FIC index ([3]; with Ciprofloxacin): 0.47 | FIC index ([3]; with Dicloxacillin): 0.47 | Maximal reversal of resistance: concentration of compound [4]: 2.0 µg/mL | FIC index [5]: 0.37

OCCN1CCC(CC/C=C2\c3ccccc3Sc3ccc(Cl)cc32)CC1 [Compound 4]
MIC Mean (Streptococci): 1 µg/mL (≈ 2.5 µM) | MIC Mean (Gram negative sp.): 3 µg/mL (≈ 7.5 µM) | MIC Mean [6]: 1 µg/mL (≈ 2.5 µM) | MIC Mean (range) (Candida species): 1.5 (0.125-2.0) μ/ml | MIC (Candida albicans; Candida albicans, compound alone, read-out: MIC Compound): 1.5 µg/mL | FIC index (Candida albicans; in combination with fluconazole): 0.39 | MIC Mean (range) (Enterococci sp.): 0.5 (0.125-1.0) μ/ml | FIC index ([2]; with Ampicillin): 0.44 | FIC index ([2]; with Ciprofloxacin): 0.47 | FIC index ([2]; with Gentamycin): 0.47 | FIC index ([2]; with Tetracycline): 0.44 | FIC index ([3]; with Ciprofloxacin): 0.34 | FIC index ([3]; with Dicloxacillin): 0.34 | FIC index [5]: 0.34
